Experimental data taken from patent US11926616B2, “Aminopyrazine diol compounds as PI3K-γ inhibitors” (Incyte Corporation, priority 2018, dated 2024).
pIC50: −log10 of the molar value. Like-named read-outs stand apart in the source and are kept apart here.

What was measured:
[1] = test system: Phosphorylated Ribosomal Protein S6 (RPS6) in THP-1 cells; test: THP-1 RPS6 ELISA Assay; assay type: cell-based, Human; details: Homo sapiens; for pIC50: THP-1 cells, serum starved, 2 hours compound, 10 nM MCP-1 for 15 minutes, Phospho-RPS6 ELISA, read-out: PI3Kγ_THP1_RPS6_ELISA IC50
Procedure: Example A. THP-1 RPS6 ELISA Assay
To measure the Phosphorylated Ribosomal Protein S6 (RPS6) in cell lysates, THP-1 cells (Human Acute Monocytic Leukemia) are purchased from ATCC (Manassas, VA) and maintained in RPMI with 10% FBS (Gibco/Life Technologies, Carlsbad, CA). For the assay, THP-1 cells are serum starved overnight in RPMI, then plated in RPMI (2×10^5 cells/well in 90 μL) into 96-well flat-bottom tissue culture treated plates (Corning, Corning, NY), in the presence or absence of a concentration range of test compounds. Covered plates are incubated for 2 hours at 37° C., 5% CO2 then treated with or without 10 nM MCP-1(MYBioSource, San Diego, CA) for 15 minutes at 37° C., 5% CO2. Plates are centrifuged at 1600 RPM and supernatants are removed. Cells are lysed in Lysis Buffer (Cell Signaling, Danvers, MA) with Protease Inhibitor (Calbiochem/EMD, Germany), PMSF (Sigma, St Louis MO), HALTS (Thermo Fisher, Rockford, IL) for 30 min on wet ice. Cell lysates are frozen at −80° C. before testing. The lysates are tested in the Human/Mouse/Rat Phospho-RPS6 ELISA (R&D Systems, Inc. Minn, MN). The plate is measured using a microplate reader (SpectraMax M5—Molecular Devices, LLC Sunnyvale, CA) set to 450 nm with a wavelength correction of 540. IC50 determination is performed by fitting the curve of inhibitor percent inhibition versus the log of the inhibitor concentration using the GraphPad Prism 5.0 software.

[2] = biological target: PI3Kγ (p110γ) Recombinant Human Protein (Homo sapiens (Human), UniProt P48736); test: PI3K-γ Scintillation Proximity Assay; assay type: biochemical; details: 20 μM PIP2, 2 μM ATP, 13 nM PI3Kγ, 120 min, room temperature
Source text: Example B. PI3K-γ Scintillation Proximity Assay Materials: [γ-^33P]ATP (10 mCi/mL) and Wheat Germ Agglutinin (WGA) YSi SPA Scintillation Beads was purchased from Perkin Elmer (Waltham, MA). Lipid kinase substrate, D-myo-Phosphatidylinositol 4,5-bisphosphate (PtdIns(4,5)P2)D (+)-sn-1,2-di-O-octanoylglyceryl, 3-O-phospho linked (PIP2), CAS 204858-53-7, was purchased from Echelon Biosciences (Salt Lake City, UT). PI3Kγ (p110γ) Recombinant Human Protein was purchased from Life technology (Grand Island, NY). ATP, MgCl2, DTT, EDTA, MOPS and CHAPS were purchased from Sigma Aldrich (St. Louis, MO). The kinase reaction was conducted in polystyrene 384-well Greiner Bio-one white plate from Thermo Fisher Scientific in a final volume of 25 μL. Inhibitors were first diluted serially in DMSO and added to the plate wells before the addition of other reaction components. The final concentration of DMSO in the assay was 2%. The PI3Kγ assay was carried out at room temperature in 20 mM MOPS, pH 6.7, 10 mM MgCl2, 5 mM DTT and CHAPS 0.03%. Reactions were initiated by the addition of ATP, the final reaction mixture consisted of 20 μM PIP2, 2 μM ATP, 0.5 μCi [γ-^33P] ATP, 13 nM PI3Kγ. Reactions were incubated for 120 min and terminated by the addition of 40 μL SPA beads suspended in quench buffer: 163 mM potassium phosphate pH 7.8, 20% glycerol, 25 mM EDTA. The final concentration of SPA beads is 1.0 mg/mL. After the plate sealing, plates were shaken overnight at room temperature and centrifuged at 1500 rpm for 10 min, the radioactivity of the product was determined by scintillation counting on Topcount (Perkin-Elmer). IC50 determination was performed by fitting the curve of percent of the solvent control activity versus the log of the inhibitor concentration using the GraphPad Prism 6.0 software.

[3] = biological target: PI3Kδ (p110δ/p85α) Recombinant Human Protein (Homo sapiens (Human), UniProt O00329); test: PI3Kδ Scintillation Proximity Assay; assay type: biochemical; details: 20 μM PIP2, 2 μM ATP, 3.4 nM PI3Kδ, 120 min, room temperature
Source text: Example C. PI3Kδ Scintillation Proximity Assay Materials: [γ-^33P]ATP (10 mCi/mL) and Wheat Germ Agglutinin (WGA) YSi SPA Scintillation Beads was purchased from Perkin Elmer (Waltham, MA). Lipid kinase substrate, D-myo-Phosphatidylinositol 4,5-bisphosphate (PtdIns(4,5)P2)D (+)-sn-1,2-di-O-octanoylglyceryl, 3-O-phospho linked (PIP2), CAS 204858-53-7, was purchased from Echelon Biosciences (Salt Lake City, UT). PI3Kδ (p110δ/p85α) Recombinant Human Protein was purchased from Eurofins (St Charles, MO). ATP, MgCl2, DTT, EDTA, MOPS and CHAPS were purchased from Sigma Aldrich (St. Louis, MO). The kinase reaction was conducted in polystyrene 384-well Greiner Bio-one white plate from Thermo Fisher Scientific in a final volume of 25 μL. Inhibitors were first diluted serially in DMSO and added to the plate wells before the addition of other reaction components. The final concentration of DMSO in the assay was 2%. The PI3Kδ assay was carried out at room temperature in 20 mM MOPS, pH 6.7, 10 mM MgCl2, 5 mM DTT and CHAPS 0.03%. Reactions were initiated by the addition of ATP, the final reaction mixture consisted of 20 μM PIP2, 2 μM ATP, […] [γ-^33P] ATP, 3.4 nM PI3Kδ. Reactions were incubated for 120 min and terminated by the addition of 40 μL SPA beads suspended in quench buffer: 163 mM potassium phosphate pH 7.8, 20% glycerol, 25 mM EDTA. The final concentration of SPA beads is 1.0 mg/mL. After the plate sealing, plates were shaken overnight at room temperature and centrifuged at 1500 rpm for 10 min, the radioactivity of the product was determined by scintillation counting on Topcount (PerkinElmer). IC50 determination was performed by fitting the curve of percent of the solvent control activity versus the log of the inhibitor concentration using the GraphPad Prism 6.0 software.

PI3Kγ (p110γ) Recombinant Human Protein, sequence (P48736 whole entry): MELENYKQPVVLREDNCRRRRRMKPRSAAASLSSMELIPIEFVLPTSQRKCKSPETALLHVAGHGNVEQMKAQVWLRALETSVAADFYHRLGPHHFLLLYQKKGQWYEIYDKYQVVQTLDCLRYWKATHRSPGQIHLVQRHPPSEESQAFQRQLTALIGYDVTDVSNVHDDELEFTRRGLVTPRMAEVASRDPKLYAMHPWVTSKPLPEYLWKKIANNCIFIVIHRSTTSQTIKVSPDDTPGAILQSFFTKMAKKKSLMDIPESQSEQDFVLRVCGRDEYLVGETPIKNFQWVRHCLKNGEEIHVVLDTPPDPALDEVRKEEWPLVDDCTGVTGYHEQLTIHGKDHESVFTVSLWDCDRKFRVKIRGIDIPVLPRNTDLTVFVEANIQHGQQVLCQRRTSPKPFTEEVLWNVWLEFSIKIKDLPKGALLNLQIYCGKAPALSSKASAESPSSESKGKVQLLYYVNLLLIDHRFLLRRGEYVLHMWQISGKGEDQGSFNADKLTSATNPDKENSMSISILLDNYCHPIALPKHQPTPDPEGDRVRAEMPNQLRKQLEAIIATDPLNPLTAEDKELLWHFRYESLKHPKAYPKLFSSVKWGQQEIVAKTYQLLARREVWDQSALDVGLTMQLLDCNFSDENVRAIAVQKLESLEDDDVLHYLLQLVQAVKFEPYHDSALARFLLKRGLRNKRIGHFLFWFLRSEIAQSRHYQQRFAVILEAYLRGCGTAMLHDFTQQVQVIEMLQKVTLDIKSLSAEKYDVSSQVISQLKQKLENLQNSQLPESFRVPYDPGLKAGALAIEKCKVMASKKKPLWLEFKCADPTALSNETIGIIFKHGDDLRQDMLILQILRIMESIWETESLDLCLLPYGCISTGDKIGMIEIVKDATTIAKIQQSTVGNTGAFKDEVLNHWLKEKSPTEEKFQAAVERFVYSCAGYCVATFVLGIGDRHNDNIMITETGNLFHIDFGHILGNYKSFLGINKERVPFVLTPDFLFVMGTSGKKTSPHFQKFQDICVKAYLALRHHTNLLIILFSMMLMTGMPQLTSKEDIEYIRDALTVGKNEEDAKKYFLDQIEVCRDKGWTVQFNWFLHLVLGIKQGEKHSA
PI3Kδ (p110δ/p85α) Recombinant Human Protein, sequence (O00329 whole entry): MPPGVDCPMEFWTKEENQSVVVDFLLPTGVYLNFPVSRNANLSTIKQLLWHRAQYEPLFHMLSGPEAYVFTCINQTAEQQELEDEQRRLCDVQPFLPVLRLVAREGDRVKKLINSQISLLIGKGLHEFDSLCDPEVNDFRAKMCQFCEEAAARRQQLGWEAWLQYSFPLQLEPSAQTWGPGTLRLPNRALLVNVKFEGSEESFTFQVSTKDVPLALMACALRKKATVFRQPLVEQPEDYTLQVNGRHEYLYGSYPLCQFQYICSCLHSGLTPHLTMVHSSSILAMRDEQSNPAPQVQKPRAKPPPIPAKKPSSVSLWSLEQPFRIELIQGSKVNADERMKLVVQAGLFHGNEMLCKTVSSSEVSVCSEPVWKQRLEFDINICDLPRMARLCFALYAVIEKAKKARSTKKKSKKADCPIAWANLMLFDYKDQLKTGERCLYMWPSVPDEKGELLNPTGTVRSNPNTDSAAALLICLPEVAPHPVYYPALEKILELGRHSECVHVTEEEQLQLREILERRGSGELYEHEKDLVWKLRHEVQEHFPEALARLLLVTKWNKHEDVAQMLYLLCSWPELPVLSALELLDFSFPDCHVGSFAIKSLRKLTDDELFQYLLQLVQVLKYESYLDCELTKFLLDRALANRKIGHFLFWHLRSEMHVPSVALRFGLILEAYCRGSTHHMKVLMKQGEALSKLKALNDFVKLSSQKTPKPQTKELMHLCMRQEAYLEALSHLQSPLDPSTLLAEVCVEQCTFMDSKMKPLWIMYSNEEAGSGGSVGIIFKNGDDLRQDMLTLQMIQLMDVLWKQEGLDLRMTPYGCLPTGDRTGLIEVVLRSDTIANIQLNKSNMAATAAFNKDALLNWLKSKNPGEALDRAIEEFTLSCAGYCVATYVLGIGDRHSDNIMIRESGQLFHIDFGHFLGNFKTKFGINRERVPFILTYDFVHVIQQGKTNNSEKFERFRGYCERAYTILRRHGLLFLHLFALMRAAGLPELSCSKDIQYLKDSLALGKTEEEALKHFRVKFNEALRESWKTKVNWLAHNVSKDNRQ
PI3Kδ (p110δ/p85α) Recombinant Human Protein, sequence (P27986 whole entry partner): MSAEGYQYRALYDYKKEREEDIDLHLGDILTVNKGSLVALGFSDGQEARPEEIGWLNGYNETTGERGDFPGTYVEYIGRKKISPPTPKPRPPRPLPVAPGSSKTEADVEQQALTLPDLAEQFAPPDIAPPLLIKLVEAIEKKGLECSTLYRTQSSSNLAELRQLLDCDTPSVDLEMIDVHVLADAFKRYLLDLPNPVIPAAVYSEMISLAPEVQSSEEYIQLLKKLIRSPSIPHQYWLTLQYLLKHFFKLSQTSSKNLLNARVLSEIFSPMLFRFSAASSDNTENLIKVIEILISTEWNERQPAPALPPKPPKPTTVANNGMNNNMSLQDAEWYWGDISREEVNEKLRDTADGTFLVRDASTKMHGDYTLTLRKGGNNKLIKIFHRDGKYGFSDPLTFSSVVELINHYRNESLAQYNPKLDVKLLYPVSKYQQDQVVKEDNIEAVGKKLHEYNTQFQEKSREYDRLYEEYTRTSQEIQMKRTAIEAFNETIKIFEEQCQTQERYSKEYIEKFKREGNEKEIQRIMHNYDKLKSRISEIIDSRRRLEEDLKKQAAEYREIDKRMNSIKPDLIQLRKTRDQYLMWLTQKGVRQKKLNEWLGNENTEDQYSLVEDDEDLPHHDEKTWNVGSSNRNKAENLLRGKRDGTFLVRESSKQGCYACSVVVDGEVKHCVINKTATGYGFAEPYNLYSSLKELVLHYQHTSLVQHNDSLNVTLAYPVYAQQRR

Row | SMILES | pIC50 [1] | other results
1 | Cc1ccc([C@](O)(CO)C(F)F)cc1-c1cnc(N)c(C(=O)NC(C)C)n1 (single isomer, unassigned) [Example 46] | – | IC50 ([1]; THP-1, read-out: PI3Kγ_THP1_RPS6_ELISA IC50 (nM)): < 100 nM
2 | Cc1ncc(-c2nc(-c3cc(C(O)(CO)C(F)(F)F)ccc3C)cnc2N)s1 (single isomer, unassigned) [Example 10, 2-(3-(5-Amino-6-(2-methylthiazol-5-yl)pyrazin-2-yl)-4-methvlphenyl)-3,3,3-trifluoropropane-1,2-diol] | > 7.00 | –
3 | Cc1ccc(C(O)(CO)C(F)(F)F)cc1-c1cnc(N)c(C(=O)NC23CC(CO)(C2)C3)n1 (single isomer, unassigned) [Example 32] | – | pIC50 [2]: ≥ 7.00; pIC50 [3]: ≥ 7.00
4 | Cc1ccc(C(O)(CO)C(F)(F)F)cc1-c1cnc(N)c(-n2cncn2)n1 (single isomer, unassigned) [Example 15, 2-(3-(5-Amino-6-(1H-1,2,4-triazol-1-yl)pyrazin-2-yl)-4-methylphenyl)-3,3,3-trifluoropropane-1,2-diol] | > 6.30 | –
5 | Cc1ccc(C(O)(CO)C(F)(F)F)cc1-c1cnc(N)c(C(=O)N[C@@H](C)CO)n1 (single isomer, unassigned) [Example 33] | – | pIC50 [2]: ≥ 7.00; pIC50 [3]: ≥ 7.00
6 | Cc1ccc(C(O)(CO)C(F)(F)F)cc1-c1cnc(N)c(-c2cnsc2)n1 (single isomer, unassigned) [Example 5, 2-(3-(5-Amino-6-(isothiazol-4-yl)pyrazin-2-yl)-4-methylphenyl)-3,3,3-trifluoropropane-1,2-diol] | > 7.00 | –
7 | Cc1cc(-c2nc(-c3cc(C(O)(CO)C(F)(F)F)ccc3C)cnc2N)sn1 (single isomer, unassigned) [Example 7, 2-(3-(5-amino-6-(3-methylisothiazol-5-yl)pyrazin-2-yl)-4-methylphenyl)-3,3,3-trifluoropropane-1,2-diol] | > 7.00 | –
8 | Cc1ccc(C(O)(CO)C(F)(F)F)cc1-c1cnc(N)c(C(=O)N[C@H](C)CO)n1 (single isomer, unassigned) [Example 36] | – | pIC50 [2]: ≥ 7.00; pIC50 [3]: ≥ 7.00
9 | [2H]C([2H])([2H])c1ccc(C(O)(CO)C(F)(F)F)cc1-c1cnc(N)c(C(=O)N[C@H](C)CO)n1 (single isomer, unassigned) [Example 36] | > 6.30 | –
10 | Cc1ccc(C(O)(CO)C(F)(F)F)cc1-c1cnc(N)c(-n2ccnn2)n1 (single isomer, unassigned) [Example 13, 2-(3-(5-Amino-6-(1H-1,2,3-triazol-1-yl)pyrazin-2-yl)-4-methylphenyl)-3,3,3-trifluoropropane-1,2-diol] | > 7.00 | –
11 | Cc1ccc(C(O)(CO)C(F)(F)F)cc1-c1cnc(N)c(C(F)(F)F)n1 (single isomer, unassigned) [Example 25, 2-(3-(5-Amino-6-(trifluoromethyl)pyrazin-2-yl)-4-methylphenyl)-3,3,3-trifluoropropane-1,2-diol] | – | pIC50 [2]: ≥ 7.00; pIC50 [3]: ≥ 6.30
12 | [2H]C([2H])([2H])n1nccc1-c1nc(-c2cc(C(O)(CO)C(F)(F)F)ccc2C)cnc1N (single isomer, unassigned) [Example 1b, 2-(3-(5-Amino-6-(1-(methyl-d3)-1H-pyrazol-5-yl)pyrazin-2-yl)-4-methylphenyl)-3,3,3-trifluoropropane-1,2-diol] | – | pIC50 [2]: ≥ 6.30; pIC50 [3]: ≥ 6.30
13 | Cc1cc(-c2nc(-c3cc(C(O)(CO)C(F)(F)F)ccc3C)cnc2N)on1 (single isomer, unassigned) [Example 4, 2-(3-(5-Amino-6-(3-methylisoxazol-5-yl)pyrazin-2-yl)-4-methylphenyl)-3,3,3-trifluoropropane-1,2-diol] | > 7.00 | –
14 | [2H]C([2H])([2H])c1ccc(C(O)(C(O)C(F)(F)F)C(F)(F)F)cc1-c1cnc(N)c(-c2c[nH]nc2C)n1 (stereo not shown) [Example 20, 2-(3-(5-Amino-6-(3-methyl-1H-pyrazol-4-yl)pyrazin-2-yl)-4-(methyl-d3)phenyl)-1,1,1,4,4,4-hexafluorobutane-2,3-diol] | – | pIC50 [2]: ≥ 7.00; pIC50 [3]: ≥ 6.30
15 | Cc1ccc(C(O)(CO)C(F)(F)F)cc1-c1cnc(N)c(-c2cnn(C)c2)n1 (single isomer, unassigned) [Example 2, 2-(3-(5-Amino-6-(1-methyl-1H-pyrazol-4-yl)pyrazin-2-yl)-4-methylphenyl)-3,3,3-trifluoropropane-1,2-diol] | > 7.00 | –
16 | Cc1ccc(C(O)(CO)C(F)(F)F)cc1-c1cnc(N)c(-c2cn[nH]c2)n1 (single isomer, unassigned) [Example 3, 2-(3-(5-Amino-6-(1H-pyrazol-4-yl)pyrazin-2-yl)-4-methylphenyl)-3,3,3-trifluoropropane-1,2-diol] | > 7.00 | –
17 | [2H]C([2H])([2H])c1ccc(C(O)(CO)C(F)(F)F)cc1-c1cnc(N)c(C(=O)N[C@@H](C)CO)n1 (single isomer, unassigned) [Example 33] | > 7.00 | –
18 | Cc1ccc(C(O)(CO)C(F)(F)F)cc1-c1cnc(N)c(-c2cnco2)n1 (single isomer, unassigned) [Example 11, 2-(3-(5-Amino-6-(oxazol-5-yl)pyrazin-2-yl)-4-methylphenyl)-3,3,3-trifluoropropane-1,2-diol] | > 7.00 | –
19 | [2H]C([2H])([2H])c1ccc(C(O)(CO)C(F)(F)F)cc1-c1cnc(N)c(C(=O)NC23CC(CO)(C2)C3)n1 (single isomer, unassigned) [Example 32] | > 7.00 | –
20 | Cc1ccc(C(O)(CO)C(F)(F)F)cc1-c1cnc(N)c(-c2ccns2)n1 (single isomer, unassigned) [Example 6, 2-(3-(5-Amino-6-(isothiazol-5-yl)pyrazin-2-yl)-4-methylphenyl)-3,3,3-trifluoropropane-1,2-diol] | > 7.00 | –
21 | [2H]C([2H])([2H])c1ccc(C(O)(CO)C(F)(F)F)cc1-c1cnc(N)c(C(=O)NCC(C)(C)C#N)n1 (single isomer, unassigned) [Example 34] | > 7.00 | –
22 | [2H]C([2H])([2H])c1ccc(C(O)(CO)C(F)(F)F)cc1-c1cnc(N)c(C(=O)NC23CCC(O)(CC2)C3)n1 (single isomer, unassigned) [Example 35] | > 7.00 | –
